The text below walks through data of patent US11510952B2, “Ethanol extraction of psychoactive compounds from psilocybin fungus” (PSILO SCIENTIFIC LTD, priority 2020, dated 2022).

Series [1] can be described thus: Solubility of psilocybin and psilocin in solvents. It is filed as physicochemical. How it is done:
Psilocybin and psilocin are soluble in methanol and water and are not soluble in isopropanol, ethanol and acetone. Experiments were performed to determine the best solvent compositions for extraction (FIGS. 32B and 32C; Table 7)

The nature of series [2]: pH stability of purified psilocybin / psilocin over time under aqueous conditions. It is filed as physicochemical. Particulars: aqueous solutions across the pH spectrum. The text has this:
The dephosphorylated indole alkaloids are well known to be unstable. Internal experiments have also quantified and substantiated these findings under aqueous conditions across the pH spectrum (Tables 5 and 6).

Consider `CN(C)CCc1c[nH]c2cccc(O)c12` [Psilocin], for which, in series [1], the solubility in acetone entry is reported as “not soluble”, the solubility in ethanol result is reported as “not soluble”, the solubility in isopropanol result is given as “not soluble” and the solubility in methanol result was “soluble”. For the same molecule, the solubility in water result in series [1] is recorded as “soluble”. Also, in series [2], the “maximum stability pH” value came to 4 pH.
Turning to `CN(C)CCc1c[nH]c2cccc(OP(=O)(O)O)c12` [Psilocybin], in series [1], the solubility in acetone result is on record as “not soluble”, the solubility in ethanol result is “not soluble”, the solubility in isopropanol result is reported as “not soluble” and the solubility in methanol result is “soluble”. Moreover, the solubility in water entry in series [1] was “soluble”.
